Measurements reported in US20130303518A1, “Methods of Inhibiting the Catalytic Activity of a Protein Kinase and of Treating a Protein Kinase Related Disorder” (JIANGSU HANSOH PHARMACEUTICAL CO., LTD., priority 2007, published 2013).
Marks after values point to notes of the source that are not given here.

Experiments:
[1] = test system: Mo7e (human megakaryoblastic leukemia cell line); experiment: Inhibition of cancer cell proliferation assay (SRB); format: cell-based; settings: mean ± SD, 72 hours
From the text: (§1) The cellular assay described here is to test the proliferation inhibition activity of the compound of Example 53 on the cancer cells in vitro using Sulforhodamine B (SRB) method. The cancer cells include HUVEC (human umbilical vein endothelial cells), HT-29 (human colon cancer cells), Mo7e (human megakaryoblastic leukemia cell line), A431 (human epidermoid carcinoma cells), NCI—H526 (small-cell lung cancer cells), and SK—BR-3 (human breast cancer cells).
Mo7e cancer cell: originally described by Avanzi et al. ((1988) Br. J. Haematol. 69:359-366), was obtained from Genetics Institute (Boston, Mass.) and was maintained in Iscove's modified Dulbecco's medium (Life Technologies, Inc.);
(§2) The following in vitro assay is to determine the activity of the tested compound for inhibiting the proliferation of the cancer cells mentioned above. The activity is represented by the IC50 value. The general procedures of the assay are given as follows: Cancer cells mentioned above were chosen and seeded to 96-well cell culture plate at a suitable concentration (e.g., 5000 cells/mL medium). […] 72 hours later, the activity of the tested compound for inhibiting the cell proliferation was determined by using Sulforhodamine B (SRB) method. IC50 value on tested cells is calculated by the data of inhibition rates of serial concentrations of the tested compound.

[2] = test system: NCI—H460 (non-small cell lung cancer); experiment: Anticancer pharmacodynamic assay in vivo, xenograft; parameters: species or system nude mice; settings: for T/C (%): relative tumor volume (%): NCI-H460 xenograft, d0-13, P < 0.01 vs Control
From the text: (§3) The test method and steps are the same with those disclosed in “PHARMACODYNAMIC ASSAYS IN VIVO” of the present invention. The therapeutic effects of the compound of Example 53 against xenografts of colon cancer, non-small cell lung cancer, liver cancer, melanoma, renal cancer in nude mice are estimated.
NCI—H460 (non-small cell lung cancer): Cell Bank, Chinese Academy of Sciences, TCHu205;
(§4) Nude mice were hypodermic inoculated HT-29 human colon cancer cell. After tumors grew to 100-300 mm^3, mice were randomly divided into teams (d0). The volume of tumors and weigh of the mice were measured for 2-3 times per week. The calculation formula of the volume of tumor (V) is: V=½×a×b^2, a: length of tumor, b: width of tumor.

Flt3 = biological target: T1, Flt3 (Homo sapiens, UniProt P36888); experiment: Inhibition of receptor tyrosine kinases activity assay; format: biochemical
T1 construct: purchased invitrogen PV3182
T1 sequence (P36888 27-993): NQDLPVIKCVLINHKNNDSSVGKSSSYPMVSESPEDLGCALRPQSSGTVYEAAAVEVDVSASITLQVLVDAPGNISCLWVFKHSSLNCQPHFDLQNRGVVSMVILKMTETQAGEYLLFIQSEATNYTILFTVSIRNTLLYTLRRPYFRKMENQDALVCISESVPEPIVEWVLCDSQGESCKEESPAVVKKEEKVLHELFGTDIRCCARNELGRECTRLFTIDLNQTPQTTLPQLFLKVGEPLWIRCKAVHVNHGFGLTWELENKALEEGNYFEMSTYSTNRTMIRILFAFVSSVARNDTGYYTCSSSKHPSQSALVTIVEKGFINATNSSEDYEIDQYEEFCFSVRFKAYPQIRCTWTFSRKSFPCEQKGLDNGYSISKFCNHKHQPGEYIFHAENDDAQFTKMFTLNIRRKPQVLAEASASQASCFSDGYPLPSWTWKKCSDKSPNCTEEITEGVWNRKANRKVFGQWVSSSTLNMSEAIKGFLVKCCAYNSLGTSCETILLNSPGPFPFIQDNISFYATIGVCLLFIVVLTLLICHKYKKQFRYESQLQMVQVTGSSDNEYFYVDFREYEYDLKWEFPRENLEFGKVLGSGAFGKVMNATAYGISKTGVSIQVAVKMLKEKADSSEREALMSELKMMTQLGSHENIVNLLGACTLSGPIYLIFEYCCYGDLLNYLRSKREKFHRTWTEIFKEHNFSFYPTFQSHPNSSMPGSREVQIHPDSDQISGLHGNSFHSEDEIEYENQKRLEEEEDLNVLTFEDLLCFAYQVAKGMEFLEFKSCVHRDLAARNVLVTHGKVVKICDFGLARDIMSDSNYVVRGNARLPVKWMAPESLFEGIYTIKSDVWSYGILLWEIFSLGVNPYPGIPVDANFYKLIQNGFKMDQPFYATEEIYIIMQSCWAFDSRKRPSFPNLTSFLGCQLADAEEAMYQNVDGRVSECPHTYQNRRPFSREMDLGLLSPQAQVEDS

HT-29(colon cancer) = experiment: Anticancer pharmacodynamic assay in vivo, xenograft; parameters: species or system nude mice; settings: for T/C (%): relative tumor volume (%): HT-29 xenograft, d0-20
From the text: as §3
HT-29(colon cancer): Cell Bank, Chinese Academy of Sciences, TCHu103;
as §4

PDGFRβ = biological target: T2, PDGFRβ (Homo sapiens, UniProt P09619); experiment: Inhibition of receptor tyrosine kinases activity assay; format: biochemical
T2 construct: purchased invitrogen PV3082

c-Kit = biological target: T3, c-Kit (Homo sapiens, UniProt P10721); experiment: as above; format: biochemical
T3 construct: purchased invitrogen PV3081

A375 (melanoma) = experiment: Anticancer pharmacodynamic assay in vivo, xenograft; parameters: species or system nude mice; settings: for T/C (%): relative tumor volume (%): A375 xenograft
From the text: as §3
A375 (melanoma): Cell Bank, Chinese Academy of Sciences, TCHu4;
as §4

Ret = biological target: T4, Ret (Homo sapiens, UniProt P07949); experiment: Inhibition of receptor tyrosine kinases activity assay; format: biochemical
T4 construct: purchased invitrogen PV3819

[3] = test system: HUVEC (human umbilical vein endothelial cells); experiment: Inhibition of cancer cell proliferation assay (SRB); format: cell-based; settings: mean ± SD, 72 hours
From the text: as §1
HUVEC cancer cell: American Type Culture Collection, Cat. No. CRL-1730
as §2, with “medium). These cells then were incubated in carbon dioxide (CO2) incubator until they reached 85% confluency.” for “medium).”

Caki-1 (renal cancer) = experiment: Anticancer pharmacodynamic assay in vivo, xenograft; parameters: species or system nude mice; settings: for T/C (%): relative tumor volume (%): Caki-1 xenograft, d0-22
From the text: as §3
Caki-1 (renal cancer): Cell Bank, Chinese Academy of Sciences, TCHu135.
as §4

[4] = mean ± SD, 20 μM ATP, 25° C., 45 minutes

T3 sequence (P10721 26-976): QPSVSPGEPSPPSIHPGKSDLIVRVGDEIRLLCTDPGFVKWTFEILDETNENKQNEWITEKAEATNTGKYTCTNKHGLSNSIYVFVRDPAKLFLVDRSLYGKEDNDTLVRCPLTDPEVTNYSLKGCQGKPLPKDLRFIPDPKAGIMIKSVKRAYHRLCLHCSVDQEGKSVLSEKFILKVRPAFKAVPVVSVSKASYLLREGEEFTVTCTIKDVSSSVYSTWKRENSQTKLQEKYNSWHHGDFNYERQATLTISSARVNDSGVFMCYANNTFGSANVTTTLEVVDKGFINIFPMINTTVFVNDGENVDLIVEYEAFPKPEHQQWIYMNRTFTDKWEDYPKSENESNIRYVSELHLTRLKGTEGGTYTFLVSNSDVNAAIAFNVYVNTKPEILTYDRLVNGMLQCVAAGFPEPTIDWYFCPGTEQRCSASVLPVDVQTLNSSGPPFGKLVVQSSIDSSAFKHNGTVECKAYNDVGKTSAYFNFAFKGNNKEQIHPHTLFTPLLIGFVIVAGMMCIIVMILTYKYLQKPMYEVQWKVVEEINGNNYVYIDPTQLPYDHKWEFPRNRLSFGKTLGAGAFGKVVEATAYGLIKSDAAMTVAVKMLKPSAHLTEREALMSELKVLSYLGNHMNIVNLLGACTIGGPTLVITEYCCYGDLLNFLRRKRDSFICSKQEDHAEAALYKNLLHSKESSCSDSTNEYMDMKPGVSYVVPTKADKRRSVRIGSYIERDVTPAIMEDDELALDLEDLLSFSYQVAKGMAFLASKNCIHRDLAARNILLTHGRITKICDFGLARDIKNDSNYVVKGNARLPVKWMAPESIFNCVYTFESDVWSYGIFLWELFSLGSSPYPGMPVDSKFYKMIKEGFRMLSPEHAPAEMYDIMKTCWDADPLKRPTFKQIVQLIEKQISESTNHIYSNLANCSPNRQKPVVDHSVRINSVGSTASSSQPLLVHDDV
T2 sequence (P09619 33-1106): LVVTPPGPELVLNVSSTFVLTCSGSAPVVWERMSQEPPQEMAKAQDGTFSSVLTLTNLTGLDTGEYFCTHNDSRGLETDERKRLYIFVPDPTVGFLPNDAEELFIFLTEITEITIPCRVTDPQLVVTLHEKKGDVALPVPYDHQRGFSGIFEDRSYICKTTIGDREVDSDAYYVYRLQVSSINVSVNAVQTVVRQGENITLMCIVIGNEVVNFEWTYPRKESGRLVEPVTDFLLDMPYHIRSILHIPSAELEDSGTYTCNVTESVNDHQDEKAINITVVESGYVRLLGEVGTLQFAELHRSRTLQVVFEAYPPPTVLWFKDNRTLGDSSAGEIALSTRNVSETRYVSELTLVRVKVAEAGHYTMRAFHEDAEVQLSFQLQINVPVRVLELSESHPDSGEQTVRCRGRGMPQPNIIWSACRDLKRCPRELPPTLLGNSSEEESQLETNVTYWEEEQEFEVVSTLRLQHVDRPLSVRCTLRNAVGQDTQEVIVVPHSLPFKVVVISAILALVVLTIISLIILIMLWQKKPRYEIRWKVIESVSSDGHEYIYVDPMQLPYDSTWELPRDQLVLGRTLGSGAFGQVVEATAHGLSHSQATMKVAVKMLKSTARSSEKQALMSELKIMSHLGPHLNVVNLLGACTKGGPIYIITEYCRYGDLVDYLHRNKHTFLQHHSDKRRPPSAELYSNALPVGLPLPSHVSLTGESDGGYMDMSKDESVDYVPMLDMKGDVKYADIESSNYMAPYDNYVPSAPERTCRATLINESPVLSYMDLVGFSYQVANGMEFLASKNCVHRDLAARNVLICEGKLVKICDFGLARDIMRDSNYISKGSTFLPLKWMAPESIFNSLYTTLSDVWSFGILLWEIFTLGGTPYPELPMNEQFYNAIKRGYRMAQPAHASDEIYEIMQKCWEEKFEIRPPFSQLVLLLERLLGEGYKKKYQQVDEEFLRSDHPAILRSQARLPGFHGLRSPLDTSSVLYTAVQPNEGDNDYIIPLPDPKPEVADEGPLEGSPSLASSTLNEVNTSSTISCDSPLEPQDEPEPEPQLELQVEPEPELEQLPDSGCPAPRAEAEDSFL
T4 sequence (P07949 29-1114): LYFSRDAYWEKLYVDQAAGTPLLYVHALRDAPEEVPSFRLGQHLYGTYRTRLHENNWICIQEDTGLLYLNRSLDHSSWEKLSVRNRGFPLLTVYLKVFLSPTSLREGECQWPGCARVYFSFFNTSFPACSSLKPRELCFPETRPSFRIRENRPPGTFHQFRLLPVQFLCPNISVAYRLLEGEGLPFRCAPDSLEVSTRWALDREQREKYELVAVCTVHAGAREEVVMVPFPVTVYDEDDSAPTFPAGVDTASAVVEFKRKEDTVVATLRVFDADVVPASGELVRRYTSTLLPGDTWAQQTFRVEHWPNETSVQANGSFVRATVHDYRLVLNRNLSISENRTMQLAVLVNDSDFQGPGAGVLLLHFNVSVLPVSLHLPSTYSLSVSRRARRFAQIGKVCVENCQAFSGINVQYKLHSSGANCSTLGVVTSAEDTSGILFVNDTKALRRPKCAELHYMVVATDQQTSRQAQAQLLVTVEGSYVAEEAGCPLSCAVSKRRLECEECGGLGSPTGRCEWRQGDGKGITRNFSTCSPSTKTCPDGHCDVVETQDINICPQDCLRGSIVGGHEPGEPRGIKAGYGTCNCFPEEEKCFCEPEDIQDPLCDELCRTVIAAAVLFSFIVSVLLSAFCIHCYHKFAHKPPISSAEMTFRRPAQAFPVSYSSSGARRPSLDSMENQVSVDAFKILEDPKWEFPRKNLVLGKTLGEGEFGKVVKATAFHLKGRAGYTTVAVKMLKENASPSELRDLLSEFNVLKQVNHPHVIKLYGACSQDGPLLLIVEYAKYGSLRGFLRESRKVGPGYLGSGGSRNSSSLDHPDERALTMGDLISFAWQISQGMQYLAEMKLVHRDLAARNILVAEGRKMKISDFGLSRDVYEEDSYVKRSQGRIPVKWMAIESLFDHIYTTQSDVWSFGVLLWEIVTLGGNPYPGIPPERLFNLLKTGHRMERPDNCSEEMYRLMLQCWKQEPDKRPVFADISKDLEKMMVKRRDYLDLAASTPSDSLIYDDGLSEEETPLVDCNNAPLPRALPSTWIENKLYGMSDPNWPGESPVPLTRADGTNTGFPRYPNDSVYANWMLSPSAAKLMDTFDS

Cc1c(/C=C2\C(=O)Nc3ccc(F)cc32)[nH]c2c1C(=O)N(C[C@H](O)CN1CCOCC1)CCC2 [Example 53, (R,Z)-2-(5-Fluoro-2-oxo-1,2-dihydro-indol-3-ylidenemethyl)-5-(2-hydroxy-3-morpholin-4-yl-propyl)-3-methyl-5,6,7,8-tetrahydro-1H-pyrrolo[3,2-c]azepin-4-one]
IC50 [1]: 800 nM | T/C (%): relative tumor volume (%) ([2]; 15 mg/kg p.o): 41.1* % | T/C (%): relative tumor volume (%) ([2]; 30 mg/kg p.o): 46.3* % | T/C (%): relative tumor volume (%) ([2]; 60 mg/kg p.o): 58.4* % | anticancer activity against xenograft (in words) ([2]; NCI—H460 xenograft in nude mice): obvious anticancer activity | inhibition of kinase activity (in words) (Flt3; Flt3): obvious activity | IC50 (Flt3; [4]): 19.3 ± 3.1 nM | anticancer activity against xenograft (in words) (HT-29(colon cancer); HT-29 xenograft in nude mice): obvious anticancer activity | T/C (%): relative tumor volume (%) (HT-29(colon cancer); 15 mg/kg p.o): 49.4% | T/C (%): relative tumor volume (%) (HT-29(colon cancer); 30 mg/kg p.o): 48.5% | T/C (%): relative tumor volume (%) (HT-29(colon cancer); 60 mg/kg p.o): 31.6% | inhibition of kinase activity (in words) (PDGFRβ; PDGFRβ): obvious activity | IC50 (PDGFRβ; [4]): 41.5 ± 22.7 nM | inhibition of kinase activity (in words) (c-Kit; c-Kit): obvious activity | IC50 (c-Kit; [4]): 3.3 ± 3.6 nM | anticancer activity against xenograft (in words) (A375 (melanoma); A375 xenograft in nude mice): obvious anticancer activity | T/C (%): relative tumor volume (%) (A375 (melanoma); 15 mg/kg p.o d0-16): 82.5% | T/C (%): relative tumor volume (%) (A375 (melanoma); 30 mg/kg p.o d0-16): 58.5% | T/C (%): relative tumor volume (%) (A375 (melanoma); 60 mg/kg p.o d0-16): 46.4% | inhibition of kinase activity (in words) (Ret; Ret): obvious activity | IC50 (Ret; [4]): 182 ± 6.4 nM | IC50 [3]: 1100 nM | anticancer activity against xenograft (in words) (Caki-1 (renal cancer); Caki-1 xenograft in nude mice): obvious anticancer activity | T/C (%): relative tumor volume (%) (Caki-1 (renal cancer); 15 mg/kg p.o): 73.0% | T/C (%): relative tumor volume (%) (Caki-1 (renal cancer); 30 mg/kg p.o): 45.5% | T/C (%): relative tumor volume (%) (Caki-1 (renal cancer); 60 mg/kg p.o): 36.8%
